According to ChEMBL document CHEMBL1135763, “Discovery of aminothiazole inhibitors of cyclin-dependent kinase 2: synthesis, X-ray crystallographic analysis, and biological activities” (J Med Chem, 2002):

Key:
[1] = target: Cyclin-dependent kinase 2 (Homo sapiens) (UniProt P24941); experiment: Percentage A2780 cells in G1 after 24 hr r at 29 nM (IC90); assay type: functional, cell-based
[2] = At a dose 50 mg/kg (114 umol/kg) was administered intraperitoneally to mice and was evaluated for half life (T1/2); assay type: ADME, organism-based; design: dose 50 mg/kg, route intraperitoneal; conditions: mouse, in vivo, ip
HS27 = experiment: Inhibition of Hs 27 human fibroblast cell proliferation; assay type: functional, cell-based
P388 = experiment: […] antitumor activity against P388 murine leukemia at 7.5 mg/kg i.p. /qd x7 and %T/C; assay type: functional, Mus musculus; conditions: route intraperitoneal
[3] = target: Cyclin-dependent kinase 2 (Homo sapiens) (UniProt P24941); experiment: Percentage A2780 cells in G2/M after 24 hr r at 5 nM (IC50); assay type: functional, cell-based
[4] = target: Cyclin-dependent kinase 2 (Homo sapiens) (UniProt P24941); experiment: Percentage A2780 cells in sub-G1 after 24 hr r at 29 nM (IC90)
[5] = At a dose 50 mg/kg (114 umol/kg) was administered intraperitoneally to mice and was evaluated for MRT; assay type: ADME, organism-based; design: dose 50 mg/kg, route intraperitoneal; conditions: mouse, in vivo, ip
[6] = target: Cyclin-dependent kinase 2 (Homo sapiens) (UniProt P24941); experiment: Percentage A2780 cells in S-phase after 24 hr r at 29 nM (IC90); assay type: functional, cell-based
MLF = experiment: Inhibition of MLF mouse lung fibroblast cell proliferation; assay type: functional, cell-based
[7] = target: Cyclin-dependent kinase 2/cyclin E (Homo sapiens, UniProt P24941); experiment: Inhibitory activity against baculovirus expressed Cyclin dependent kinase 2-cyclinE; assay type: protein-complex assay
A2780 [8] = experiment: cells; conditions: Homo sapiens
Description: Cytotoxic activity against A2780 human ovarian carcinoma cell line

[9] = At a dose 50 mg/kg (114 umol/kg) was administered intraperitoneally to mice and was evaluated for T max; assay type: ADME, organism-based; design: dose 50 mg/kg, route intraperitoneal; conditions: mouse, in vivo, ip
[10] = At a dose 50 mg/kg (114 umol/kg) was administered intraperitoneally to mice and was evaluated for Cmax; assay type: ADME, organism-based; design: dose 50 mg/kg, route intraperitoneal; conditions: mouse, in vivo, ip
[11] = target: Cyclin-dependent kinase 2 (Homo sapiens) (UniProt P24941); experiment: Percentage A2780 cells in S-phase after 24 hr r at 5 nM (IC50); assay type: functional, cell-based
M109 = experiment: Inhibition of M109 mouse lung carcinoma cell proliferation; assay type: functional, cell-based
[12] = target: Cyclin-dependent kinase 4/cyclin D1 (Homo sapiens, UniProt P11802); experiment: Inhibitory activity against baculovirus expressed Cyclin dependent kinase 4-cyclinD1; assay type: protein-complex assay
Mus musculus = experiment: At a dose 50 mg/kg (114 umol/kg) was administered intraperitoneally to mice and was evaluated for area under curve (AUCtot); assay type: ADME, organism-based; design: time AUCmax, dose 50 mg/kg, route intraperitoneal; conditions: in vivo, ip
A2780 [13] = experiment: […] antitumor activity against A2780 human ovarian carcinoma at 7.5 mg/kg i.p. /qd x7; assay type: functional; conditions: route intraperitoneal
[14] = target: Cyclin-dependent kinase 2 (Homo sapiens) (UniProt P24941); experiment: Apoptotic A2780 cells after 24 hr r at 29 nM (IC90); assay type: functional, cell-based
Homo sapiens = organism: Homo sapiens; experiment: Percent of serum binding in human; assay type: functional
[15] = target: Cyclin-dependent kinase 2 (Homo sapiens) (UniProt P24941); experiment: Percentage A2780 cells in sub-G1 after 24 hr r at 5 nM (IC50); assay type: functional, cell-based
[16] = target: Cyclin-dependent kinase 2 (Homo sapiens) (UniProt P24941); experiment: Percentage A2780 cells in G2/M after 24 hr r at 29 nM (IC90); assay type: functional, cell-based
[17] = target: Cyclin-dependent kinase 1/cyclin B (Homo sapiens, UniProt P06493); experiment: Inhibitory activity against baculovirus expressed Cyclin dependent kinase 1-cyclinB; assay type: protein-complex assay
[18] = target: Cyclin-dependent kinase 2 (Homo sapiens) (UniProt P24941); experiment: Percentage A2780 cells in G1 after 24 hr r at 5 nM (IC50); assay type: functional, cell-based
[19] = target: Cyclin-dependent kinase 2 (Homo sapiens) (UniProt P24941); experiment: Apoptotic A2780 cells after 24 hr r at 5 nM (IC50); assay type: functional, cell-based
Protein kinase C (PKC) = experiment: Inhibition of Protein kinase C; assay type: protein assay
[20] = target: cAMP-dependent protein kinase (PKA) (Homo sapiens, UniProt P22694+P17612+P22612); experiment: Inhibition of Protein kinase A (PKA); assay type: protein assay

Sequence of Cyclin-dependent kinase 4/cyclin D1 (P11802 whole entry): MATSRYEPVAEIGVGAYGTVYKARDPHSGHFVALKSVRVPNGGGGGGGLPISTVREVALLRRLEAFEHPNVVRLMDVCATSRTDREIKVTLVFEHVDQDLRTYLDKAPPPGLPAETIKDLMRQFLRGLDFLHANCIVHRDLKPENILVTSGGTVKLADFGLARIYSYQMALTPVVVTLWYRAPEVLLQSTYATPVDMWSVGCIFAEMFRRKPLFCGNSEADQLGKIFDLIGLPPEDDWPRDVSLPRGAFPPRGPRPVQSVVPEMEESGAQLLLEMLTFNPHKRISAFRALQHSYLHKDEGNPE
Sequence of Cyclin-dependent kinase 4/cyclin D1 (P24385 whole entry, further chain): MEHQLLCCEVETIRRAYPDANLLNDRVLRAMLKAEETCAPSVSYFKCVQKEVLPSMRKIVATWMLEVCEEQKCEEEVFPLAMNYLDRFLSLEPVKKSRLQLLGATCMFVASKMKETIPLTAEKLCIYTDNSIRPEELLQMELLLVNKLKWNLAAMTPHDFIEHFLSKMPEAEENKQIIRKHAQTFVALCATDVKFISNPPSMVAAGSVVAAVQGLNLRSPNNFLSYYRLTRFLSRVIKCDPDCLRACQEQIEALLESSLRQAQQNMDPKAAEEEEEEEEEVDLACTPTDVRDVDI

CCc1cnc(CSc2cnc(NC(=O)Cc3cccnc3)s2)o1
Cell cycle [1]: 50% | half-life [2]: 66 min | IC50 (HS27): 860 nM | T/C (P388): 115% | Cell cycle [3]: 20% | Cell cycle [4]: 25% | MRT [5]: 48 min | Cell cycle [6]: 7% | IC50 (MLF): 1860 nM | IC50 [7]: 5 nM | IC50 (A2780 [8]): 240 nM | Tmax [9]: 30 min | Cmax [10]: 40 µM | Cell cycle [11]: 7% | IC50 (M109): 2100 nM | IC50 [12]: 1.09 µM | AUC (Mus musculus): 23 µM·h | LCK (A2780 [13]): 0.4 | Cell cycle [14]: 69% | Activity (Homo sapiens): 82% | Cell cycle [15]: 2% | Cell cycle [16]: 18% | IC50 [17]: 80 nM | Cell cycle [18]: 71% | Cell cycle [19]: 4%

CCOC(=O)CSc1cnc(NC(C)=O)s1
IC50 [7]: 170 nM | IC50 [12]: 23 µM | IC50 (Protein kinase C (PKC)): > 50 µM | IC50 [20]: > 50 µM | IC50 [17]: 1870 nM
